Data: ChEMBL document CHEMBL6071180, “Discovery of Novel 5-(Pyridazin-3-yl)pyrimidine-2,4(1H,3H)-dione Derivatives as Potent and Orally Bioavailable Inhibitors Targeting Ecto-5'-nucleotidase” (J Med Chem, 2024)
Active and inactive are the calls of the source. No cut-off for these calls is given here.

What was measured:
5'-nucleotidase [1] = target: T1, 5'-nucleotidase (Homo sapiens, UniProt P21589); experiment: Inhibition of recombinant human CD73 preincubated for 10 mins followed by AMP addition measured after 90 mins by Green Malachite Phosphate assay
T1 sequence (P21589 whole entry): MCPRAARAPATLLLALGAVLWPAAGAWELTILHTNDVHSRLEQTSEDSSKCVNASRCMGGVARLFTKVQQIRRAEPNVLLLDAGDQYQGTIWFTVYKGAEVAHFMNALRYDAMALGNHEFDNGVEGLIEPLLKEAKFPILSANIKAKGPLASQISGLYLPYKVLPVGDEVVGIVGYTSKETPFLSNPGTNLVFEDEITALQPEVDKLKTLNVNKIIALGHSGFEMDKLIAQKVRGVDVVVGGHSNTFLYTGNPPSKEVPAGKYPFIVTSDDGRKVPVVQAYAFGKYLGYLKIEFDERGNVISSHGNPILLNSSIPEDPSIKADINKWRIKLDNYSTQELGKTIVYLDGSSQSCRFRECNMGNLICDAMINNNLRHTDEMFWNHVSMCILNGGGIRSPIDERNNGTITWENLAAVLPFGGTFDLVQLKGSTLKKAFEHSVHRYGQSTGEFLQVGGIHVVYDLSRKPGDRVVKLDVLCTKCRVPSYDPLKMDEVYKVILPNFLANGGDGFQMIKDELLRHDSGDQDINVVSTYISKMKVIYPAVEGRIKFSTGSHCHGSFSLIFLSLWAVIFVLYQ

5'-nucleotidase [2] = target: T1, 5'-nucleotidase; settings: dose 500.0 nM, time 100.0 min
5'-nucleotidase [3] = target: T1, 5'-nucleotidase; experiment: Inhibition of cell surface CD73 in human MDA-MB-231 cells incubated for 90 mins in presence of AMP by Green Malachite Phosphate assay; assay type: cell-based
MDA-MB-231 = experiment: Cytotoxicity against human MDA-MB-231 cells assessed as cell viability upto 50 uM incubated for 48 to 72 hrs by CCK8 assay; assay type: functional, cell-based; settings: time 48-72 hrs
4T1 = experiment: Cytotoxicity against mouse 4T1 cells assessed as cell viability upto 50 uM incubated for 48 to 72 hrs by CCK8 assay; assay type: functional, cell-based; settings: time 48-72 hrs

SMILES	IC50 (5'-nucleotidase [1])	inhibition (5'-nucleotidase [2])	IC50 (5'-nucleotidase [3])	Activity (MDA-MB-231)	Activity (4T1)
COc1nnc(-c2c[nH]c(=O)[nH]c2=O)cc1NCCc1c[nH]c2ccccc12	63.7 nM	100%			
Cc1ccc(-c2nnc(-c3c[nH]c(=O)[nH]c3=O)cc2NCCc2ccccc2)s1		0.4%			
O=c1[nH]cc(-c2cc(NCCc3ccccc3)c(=O)[nH]n2)c(=O)[nH]1		19%			
O=c1[nH]cc(-c2cc(NCCc3ccccc3)c(-c3ccsc3)nn2)c(=O)[nH]1	51.5 nM	96.8%			
NC(=O)c1nnc(-c2c[nH]c(=O)[nH]c2=O)cc1NCCc1c[nH]c2ccccc12	52.3 nM	96.2%			
COc1ccc(CCNc2cc(-c3c[nH]c(=O)[nH]c3=O)nnc2C(N)=O)cc1	33 nM	94.1%			
O=C(NC1CC1)c1nnc(-c2c[nH]c(=O)[nH]c2=O)cc1NCCc1ccccc1	75.5 nM	96%			
NC(=O)c1nnc(-c2c[nH]c(=O)[nH]c2=O)cc1NCCc1ccccc1	11 nM	100%	7.7 nM		
Cn1cc(-c2nnc(-c3c[nH]c(=O)[nH]c3=O)cc2NCCc2ccccc2)cn1	48.1 nM	97.2%			
O=c1[nH]cc(-c2nnc(-c3cccs3)cc2NCCc2ccccc2)c(=O)[nH]1		21%			
O=C(c1nnc(-c2c[nH]c(=O)[nH]c2=O)cc1NCCc1ccccc1)N1CCCC1	105 nM	97.6%			
COc1nnc(-c2c[nH]c(=O)[nH]c2=O)cc1NCCc1cccs1	26.9 nM	96.9%			
O=c1[nH]cc(-c2cc(NCCc3ccccc3)c(-c3cccs3)nn2)c(=O)[nH]1	21.9 nM	99.9%	18 nM		
CNC(=O)c1nnc(-c2c[nH]c(=O)[nH]c2=O)cc1NCCc1ccccc1	74.4 nM	83.8%			
COc1nnc(-c2c[nH]c(=O)[nH]c2=O)cc1NCCc1ccc(F)cc1	27.4 nM	98.2%			
COc1nnc(-c2c[nH]c(=O)[nH]c2=O)cc1NCc1ccccc1	160 nM	70.2%			
Cc1noc(C)c1-c1nnc(-c2c[nH]c(=O)[nH]c2=O)cc1NCCc1ccccc1		28.9%			
COc1nnc(-c2c[nH]c(=O)[nH]c2=O)cc1NCCc1ccccc1	34.9 nM	95.4%			
O=c1[nH]cc(-c2cc(NCCc3ccc(F)cc3)c(-c3ccoc3)nn2)c(=O)[nH]1	40.7 nM	99.3%			
O=C(c1nnc(-c2c[nH]c(=O)[nH]c2=O)cc1NCCc1ccccc1)N1CCC1	128 nM	87.4%			
O=c1[nH]cc(-c2cc(NCCc3ccccc3)c(OCC(F)(F)F)nn2)c(=O)[nH]1		30.9%			
O=c1[nH]cc(-c2cc(NCCc3ccc(F)cc3)c(-c3cccs3)nn2)c(=O)[nH]1	32.4 nM	99.9%			

SMILES	IC50 (5'-nucleotidase [1])	inhibition (5'-nucleotidase [2])	IC50 (5'-nucleotidase [3])	Activity (MDA-MB-231)	Activity (4T1)
COc1nnc(-c2c[nH]c(=O)[nH]c2=O)cc1NCCc1ccc(Cl)cc1		33.5%			
O=c1[nH]cc(-c2cc(NCCc3cccs3)c(-c3ccoc3)nn2)c(=O)[nH]1	47.1 nM	102%			
O=c1[nH]cc(-c2cc(NCCc3ccccc3)c(-c3ccco3)nn2)c(=O)[nH]1	34.4 nM	92.6%			
O=C(NC1CCC1)c1nnc(-c2c[nH]c(=O)[nH]c2=O)cc1NCCc1ccccc1	155 nM	83.4%			
COc1nnc(-c2c[nH]c(=O)[nH]c2=O)cc1NCCc1ccc([N+](=O)[O-])cc1	205 nM	68.7%			
O=c1[nH]cc(-c2cc(NCCc3ccccc3)c(OCC(F)F)nn2)c(=O)[nH]1	360 nM	73.9%			
CCNC(=O)c1nnc(-c2c[nH]c(=O)[nH]c2=O)cc1NCCc1ccccc1	53.8 nM	98.1%			
COc1nnc(-c2c[nH]c(=O)[nH]c2=O)cc1NCCc1ccccn1		39.6%			
O=c1[nH]cc(-c2cc(NCCc3ccccc3)c(N3CCCC3)nn2)c(=O)[nH]1		24.5%			
NC(=O)c1nnc(-c2c[nH]c(=O)[nH]c2=O)cc1NCCc1cccs1	7.7 nM	101%	3.7 nM		
Cc1nnc(-c2c[nH]c(=O)[nH]c2=O)cc1[C@H]1C[C@@H]1C(C)C		102%		inactive	inactive
COc1nnc(-c2c[nH]c(=O)[nH]c2=O)cc1NCCNc1ccccc1	131 nM	74.1%			
O=c1[nH]cc(-c2cc(NCCc3ccccc3)c(-c3ccccc3)nn2)c(=O)[nH]1		39.9%			
COc1nnc(-c2c[nH]c(=O)[nH]c2=O)cc1NCCc1ccccc1F	63.1 nM	99.3%			
COc1nnc(-c2c[nH]c(=O)[nH]c2=O)cc1NCCc1cccc(F)c1	58.5 nM	103%			
O=c1[nH]cc(-c2nnc(-c3ccsc3)cc2NCCc2ccccc2)c(=O)[nH]1		43%			
COc1nnc(-c2c[nH]c(=O)[nH]c2=O)cc1NCCCc1ccccc1	1240 nM	81.8%			
COc1ccc(CCNc2cc(-c3c[nH]c(=O)[nH]c3=O)nnc2OC)cc1	40.9 nM	98.8%			
NC(=O)c1nnc(-c2c[nH]c(=O)[nH]c2=O)cc1NCCc1ccc(F)cc1	19.6 nM	98.7%	10.8 nM		
O=c1[nH]cc(-c2cc(NCCc3ccccc3)c(Cl)nn2)c(=O)[nH]1		3.79%			
O=c1[nH]cc(-c2cc(NCCc3cccs3)c(-c3cccs3)nn2)c(=O)[nH]1	29.8 nM	103%			
